Data as given in ChEMBL document CHEMBL4402535, “Ellagic acid a multi-target bioactive compound for drug discovery in CNS? A narrative review” (Eur J Med Chem, 2019).

Experiments:
[1] = target: T1, Amine oxidase [flavin-containing] A (Homo sapiens, UniProt P21397); assay: Inhibition of MAO-A (unknown origin)
T1 sequence (P21397 whole entry): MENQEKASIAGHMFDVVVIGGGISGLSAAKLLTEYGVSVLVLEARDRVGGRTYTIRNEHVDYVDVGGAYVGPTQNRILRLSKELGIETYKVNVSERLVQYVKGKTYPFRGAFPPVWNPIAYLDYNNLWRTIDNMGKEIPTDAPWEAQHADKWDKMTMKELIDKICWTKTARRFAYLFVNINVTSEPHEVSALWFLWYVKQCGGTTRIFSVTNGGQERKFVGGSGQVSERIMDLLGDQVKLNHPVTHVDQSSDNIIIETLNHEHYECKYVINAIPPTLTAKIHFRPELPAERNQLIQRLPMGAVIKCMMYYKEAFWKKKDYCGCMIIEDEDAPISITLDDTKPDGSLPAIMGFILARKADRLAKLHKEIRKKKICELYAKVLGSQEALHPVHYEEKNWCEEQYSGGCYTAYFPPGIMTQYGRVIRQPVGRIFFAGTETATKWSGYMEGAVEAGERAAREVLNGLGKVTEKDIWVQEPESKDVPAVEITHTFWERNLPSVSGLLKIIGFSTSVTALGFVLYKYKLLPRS

[2] = target: Cholinesterase (Equus caballus) (UniProt P81908); assay: Inhibition of equine serum BuChE using S-butyrylthiocholine chloride as substrate
Cholinesterase (Equus caballus), sequence (P81908 whole entry): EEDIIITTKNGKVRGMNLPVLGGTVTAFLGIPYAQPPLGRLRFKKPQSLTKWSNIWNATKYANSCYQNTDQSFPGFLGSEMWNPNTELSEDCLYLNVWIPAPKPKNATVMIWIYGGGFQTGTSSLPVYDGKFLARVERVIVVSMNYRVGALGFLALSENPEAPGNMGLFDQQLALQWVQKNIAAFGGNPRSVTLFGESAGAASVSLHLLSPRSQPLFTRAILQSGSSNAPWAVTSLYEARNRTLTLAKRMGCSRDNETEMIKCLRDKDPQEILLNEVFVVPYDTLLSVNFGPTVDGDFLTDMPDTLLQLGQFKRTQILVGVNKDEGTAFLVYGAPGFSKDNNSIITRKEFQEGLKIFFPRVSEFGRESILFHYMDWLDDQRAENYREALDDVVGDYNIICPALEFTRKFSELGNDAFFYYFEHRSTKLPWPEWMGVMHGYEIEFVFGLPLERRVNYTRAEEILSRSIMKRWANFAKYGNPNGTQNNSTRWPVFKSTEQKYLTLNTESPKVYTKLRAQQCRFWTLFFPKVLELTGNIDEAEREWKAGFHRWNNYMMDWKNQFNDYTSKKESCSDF

[3] = target: Acetylcholinesterase (Electrophorus electricus) (UniProt O42275); assay: Inhibition of electric eel AChE using acetylthiocholine iodide as substrate
Acetylcholinesterase (Electrophorus electricus), sequence (O42275 24-633 limits assumed): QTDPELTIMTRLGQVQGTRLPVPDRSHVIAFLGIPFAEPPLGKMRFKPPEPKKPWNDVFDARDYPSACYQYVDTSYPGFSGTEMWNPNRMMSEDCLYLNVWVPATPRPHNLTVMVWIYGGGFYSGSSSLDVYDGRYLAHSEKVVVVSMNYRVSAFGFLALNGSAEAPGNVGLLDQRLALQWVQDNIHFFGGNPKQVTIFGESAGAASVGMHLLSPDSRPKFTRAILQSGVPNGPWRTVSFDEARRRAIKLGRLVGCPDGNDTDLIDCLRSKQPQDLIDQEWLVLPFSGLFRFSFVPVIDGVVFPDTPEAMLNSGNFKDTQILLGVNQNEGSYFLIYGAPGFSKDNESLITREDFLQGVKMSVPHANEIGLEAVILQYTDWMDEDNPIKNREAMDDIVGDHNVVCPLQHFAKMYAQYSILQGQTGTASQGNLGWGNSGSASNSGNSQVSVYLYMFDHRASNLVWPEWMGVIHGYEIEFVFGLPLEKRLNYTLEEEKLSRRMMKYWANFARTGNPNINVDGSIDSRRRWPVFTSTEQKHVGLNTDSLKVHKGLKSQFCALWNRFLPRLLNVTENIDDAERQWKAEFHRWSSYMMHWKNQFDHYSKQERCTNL

[4] = target: Salmon testes DNA; assay: Binding affinity to salmon DNA isolated from testis using dopamine as substrate in presence of CuCl2; type: nucleic-acid assay, Salmonidae
[5] = Antioxidant activity assessed as DPPH radical scavenging activity after 1 hr; type: functional
[6] = Antioxidant activity assessed as O2 radical scavenging activity after 1 hr; type: functional
[7] = target: T2, Amyloid-beta precursor protein (Homo sapiens, UniProt P05067); assay: Inhibition of beta amyloid in human SH-SY5Y cells; type: cell-based
T2 sequence (P05067 whole entry): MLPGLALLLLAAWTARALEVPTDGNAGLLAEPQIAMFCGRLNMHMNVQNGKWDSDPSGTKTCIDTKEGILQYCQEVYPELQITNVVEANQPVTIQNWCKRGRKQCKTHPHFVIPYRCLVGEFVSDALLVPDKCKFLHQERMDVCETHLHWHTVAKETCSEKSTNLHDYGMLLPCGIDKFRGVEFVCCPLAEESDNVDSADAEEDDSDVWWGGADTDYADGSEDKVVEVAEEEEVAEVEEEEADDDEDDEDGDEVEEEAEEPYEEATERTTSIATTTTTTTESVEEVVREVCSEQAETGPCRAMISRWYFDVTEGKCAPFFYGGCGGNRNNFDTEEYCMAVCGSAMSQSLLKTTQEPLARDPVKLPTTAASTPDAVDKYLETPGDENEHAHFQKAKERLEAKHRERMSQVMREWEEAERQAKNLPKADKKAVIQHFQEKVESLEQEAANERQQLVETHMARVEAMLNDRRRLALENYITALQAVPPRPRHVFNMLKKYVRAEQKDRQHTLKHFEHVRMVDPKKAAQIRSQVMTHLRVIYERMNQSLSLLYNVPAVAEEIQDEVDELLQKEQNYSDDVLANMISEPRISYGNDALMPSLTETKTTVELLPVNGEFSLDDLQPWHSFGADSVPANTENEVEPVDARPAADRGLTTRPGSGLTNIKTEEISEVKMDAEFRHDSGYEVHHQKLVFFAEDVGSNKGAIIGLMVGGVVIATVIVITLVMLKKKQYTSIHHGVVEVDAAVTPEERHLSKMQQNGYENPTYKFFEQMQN

[8] = target: Acetylcholinesterase (Electrophorus electricus, UniProt O42275); assay: Inhibition of electric eel AChE using acetylthiocholine iodide as substrate measured at 1 min intervals for 5 mins by Ellman's method
Acetylcholinesterase, sequence (O42275 whole entry): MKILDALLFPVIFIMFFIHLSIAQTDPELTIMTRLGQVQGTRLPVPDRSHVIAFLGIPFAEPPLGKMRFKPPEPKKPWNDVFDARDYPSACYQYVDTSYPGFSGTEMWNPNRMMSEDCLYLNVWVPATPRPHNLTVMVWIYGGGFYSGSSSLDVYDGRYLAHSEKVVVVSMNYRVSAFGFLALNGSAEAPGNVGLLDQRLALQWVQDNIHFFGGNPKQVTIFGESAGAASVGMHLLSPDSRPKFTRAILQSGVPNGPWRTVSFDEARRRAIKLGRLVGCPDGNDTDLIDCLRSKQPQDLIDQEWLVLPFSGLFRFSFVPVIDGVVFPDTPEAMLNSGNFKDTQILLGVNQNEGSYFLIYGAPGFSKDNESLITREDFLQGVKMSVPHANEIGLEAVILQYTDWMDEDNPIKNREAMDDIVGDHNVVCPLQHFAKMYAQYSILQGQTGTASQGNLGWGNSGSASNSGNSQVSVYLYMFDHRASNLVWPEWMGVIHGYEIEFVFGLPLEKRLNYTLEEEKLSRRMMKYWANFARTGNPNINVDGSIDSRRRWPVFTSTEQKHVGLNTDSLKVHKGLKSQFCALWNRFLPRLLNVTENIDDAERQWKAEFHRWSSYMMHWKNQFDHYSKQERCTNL

[9] = Antioxidant activity assessed as DPPH radical scavenging activity; type: functional
[10] = target: T2, Amyloid-beta precursor protein; assay: Inhibition of beta amyloid (unknown origin) after 12 to 24 hrs
[11] = Antioxidant activity assessed as NO radical scavenging activity after 1 hr; type: functional

O=c1oc2c(O)c(O)cc3c(=O)oc4c(O)c(O)cc1c4c23 [ELLAGIC ACID]
EC50 [1]: 1.6 µM
EC16 [2]: 250 µM
EC24 [3]: 250 µM
IC50 [4]: 1 to 150 µM
IC50 [5]: 31.1 µM
EC50 [6]: 177 µM
IC50 [7]: 300 µM
IC50 [8]: 133 µM
EC50 [9]: 6.9 µM
IC50 [10]: 100 to 300 µM
EC50 [11]: 24.2 µM
